In PMC9807592, “New thioxothiazolidinyl-acetamides derivatives as potent urease inhibitors: design, synthesis, in vitro inhibition, and molecular dynamic simulation” (Scientific Reports, 2023):
Values after ≈ are worked out from the molar mass of the structure shown.

Test system: not listed separately
Test: In vitro cytotoxic evaluation (MTT assay)
Type: cell-based
Details: human, MOLT-4 cells
Experimental: MOLT-4 (human acute lymphoblastic leukemia) cells were cultures in RPMI-1640 medium supplemented with 10% heat-inactivated fetal bovine serum. Cell viability was measured by the MTT assay. MOLT-4 cells were seeded into 96-well micro-culture plates. After 24 h, the culture medium was replaced with a medium containing different concentrations of newly synthesized derivatives. Control wells were supplemented with the same volume of growth medium not containing any drugs. Cells were then incubated at 37 °C for 72 h. At the end of the exposure time, the medium was removed and MTT solution of 0.5 mg/ml was added to each well. The plates were incubated at 37 °C for 4 h, after which DMSO was added to each well to solubilize the formed formazan crystals, and the absorbance of each well was read with a microplate reader at 570 nm.

Row | Structure (SMILES) | viability at 72 h, 100 µM [%]
1 | O=C(CC1SC(=S)N(Cc2ccccc2)C1=O)NCc1ccccc1 (centres unmarked) [Compound 6a, N-benzyl-2-(3-benzyl-4-oxo-2-thioxothiazolidin-5-yl)acetamide] | 95.5 ± 2.7
2 | Cc1ccc(CNC(=O)CC2SC(=S)N(Cc3ccccc3)C2=O)cc1 (centres unmarked) [Compound 6b, 2-(3-benzyl-4-oxo-2-thioxothiazolidin-5-yl)-N-(4-methylbenzyl)acetamide] | 91.2 ± 4.2
3 | CC(C)CN1C(=O)C(CC(=O)NCc2ccccc2)SC1=S (centres unmarked) [Compound 6l, N-benzyl-2-(3-isobutyl-4-oxo-2-thioxothiazolidin-5-yl)acetamide] | 93.6 ± 4.5
4 | CCCCN1C(=O)C(CC(=O)NCC(C)C)SC1=S (centres unmarked) [Compound 6k, 2-(3-butyl-4-oxo-2-thioxothiazolidin-5-yl)-N-isobutylacetamide] | 98.5 ± 1.4
5 | O=C(CC1SC(=S)N(Cc2ccccc2)C1=O)NCc1ccc(F)cc1 (centres unmarked) [Compound 6c, 2-(3-benzyl-4-oxo-2-thioxothiazolidin-5-yl)-N-(4-fluorobenzyl)acetamide] | 92.7 ± 3.6
6 | CCCCN1C(=O)C(CC(=O)NCc2ccc(C)cc2)SC1=S (centres unmarked) [Compound 6j, 2-(3-butyl-4-oxo-2-thioxothiazolidin-5-yl)-N-(4-methylbenzyl)acetamide] | 97.7 ± 4.6
7 | Cc1ccc(CNC(=O)CC2SC(=S)N(CC(C)C)C2=O)cc1 (centres unmarked) [Compound 6m, 2-(3-isobutyl-4-oxo-2-thioxothiazolidin-5-yl)-N-(4-methylbenzyl)acetamide] | 97.7 ± 2.9

Same assay, conditions: human, MOLT-4 cells, read-out: IC50 (µM), cytotoxicity

Row | Structure (SMILES) | IC50 at 72 h [µM]
8 | COc1cccc2c1C(=O)c1c(O)c3c(c(O)c1C2=O)C[C@@](O)(C(=O)CO)C[C@@H]3O[C@H]1C[C@H](N)[C@H](O)[C@H](C)O1 [Doxorubicin, reference compound] | 12.7 ± 2.4

Test system: not given
Test: not given
Details: not given

Row | Structure (SMILES) | melting point [°C]
9 | O=C(CC1SC(=S)N(Cc2ccccc2)C1=O)NCc1ccccc1 (centres unmarked) [Compound 6a, N-benzyl-2-(3-benzyl-4-oxo-2-thioxothiazolidin-5-yl)acetamide] | 168 to 170
10 | Cc1ccc(CNC(=O)CC2SC(=S)N(Cc3ccccc3)C2=O)cc1 (centres unmarked) [Compound 6b, 2-(3-benzyl-4-oxo-2-thioxothiazolidin-5-yl)-N-(4-methylbenzyl)acetamide] | 167 to 169
11 | CC(C)CN1C(=O)C(CC(=O)NCc2ccccc2)SC1=S (centres unmarked) [Compound 6l, N-benzyl-2-(3-isobutyl-4-oxo-2-thioxothiazolidin-5-yl)acetamide] | 169 to 171
12 | CCCCN1C(=O)C(CC(=O)NCC(C)C)SC1=S (centres unmarked) [Compound 6k, 2-(3-butyl-4-oxo-2-thioxothiazolidin-5-yl)-N-isobutylacetamide] | 170 to 172
13 | O=C(CC1SC(=S)N(Cc2ccccc2)C1=O)NCc1ccc(F)cc1 (centres unmarked) [Compound 6c, 2-(3-benzyl-4-oxo-2-thioxothiazolidin-5-yl)-N-(4-fluorobenzyl)acetamide] | 169 to 171
14 | CCCCN1C(=O)C(CC(=O)NCc2ccc(C)cc2)SC1=S (centres unmarked) [Compound 6j, 2-(3-butyl-4-oxo-2-thioxothiazolidin-5-yl)-N-(4-methylbenzyl)acetamide] | 174 to 176
15 | Cc1ccc(CNC(=O)CC2SC(=S)N(CC(C)C)C2=O)cc1 (centres unmarked) [Compound 6m, 2-(3-isobutyl-4-oxo-2-thioxothiazolidin-5-yl)-N-(4-methylbenzyl)acetamide] | 173 to 175

Molecular target: urease (Canavalia ensiformis, UniProt P07374)
Sequence (P07374 whole entry, looked up): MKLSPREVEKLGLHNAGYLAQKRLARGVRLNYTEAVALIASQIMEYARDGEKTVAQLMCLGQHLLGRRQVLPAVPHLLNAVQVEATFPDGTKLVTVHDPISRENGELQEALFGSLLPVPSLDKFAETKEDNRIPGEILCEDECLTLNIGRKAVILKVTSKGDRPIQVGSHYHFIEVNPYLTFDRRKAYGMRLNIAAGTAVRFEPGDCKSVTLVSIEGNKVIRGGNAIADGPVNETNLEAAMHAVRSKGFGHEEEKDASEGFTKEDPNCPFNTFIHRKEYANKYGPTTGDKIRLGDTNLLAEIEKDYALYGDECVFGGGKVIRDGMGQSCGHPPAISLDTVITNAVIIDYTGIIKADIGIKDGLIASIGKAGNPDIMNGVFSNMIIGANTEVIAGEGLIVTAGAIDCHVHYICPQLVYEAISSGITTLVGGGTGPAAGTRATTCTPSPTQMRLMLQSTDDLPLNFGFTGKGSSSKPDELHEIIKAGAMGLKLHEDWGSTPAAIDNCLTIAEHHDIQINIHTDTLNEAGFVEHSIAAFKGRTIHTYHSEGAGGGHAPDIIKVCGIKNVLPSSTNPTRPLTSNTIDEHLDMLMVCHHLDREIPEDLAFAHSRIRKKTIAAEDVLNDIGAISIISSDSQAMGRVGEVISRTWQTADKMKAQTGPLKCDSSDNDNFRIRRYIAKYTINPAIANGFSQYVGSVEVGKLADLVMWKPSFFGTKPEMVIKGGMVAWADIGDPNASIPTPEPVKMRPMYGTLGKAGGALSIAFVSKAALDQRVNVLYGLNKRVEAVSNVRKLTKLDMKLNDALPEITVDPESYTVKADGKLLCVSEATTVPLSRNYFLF
Test: biochemical
Type: biochemical
Details: not given
Experimental: The assay was performed exactly according to our previous report. Briefly, 850 μL of urea and 15 μL urease (0.135 units dissolved in PBS, pH 7.4) were added to 100 μL of the synthesized derivatives at different concentrations. After 30 min, to 100 μL of the incubated solution, 500 μL solution I (5.0 g phenol and 25.0 mg sodium nitroprusside in 500 mL water) was added followed by the addition of 500 μL of solution II (2.5 g sodium hydroxide, 4.2 mL sodium hypochlorite, and 5% chlorine in 500 mL water) which was further incubated at 37 °C for 30 min. The absorbance was determined by measuring indophenols at 625 nm. Thiourea was used as the standard inhibitor for urease. The IC50 values for all synthesized compounds were calculated using GraphPad Prism software (GraphPad Software, Inc., San Diego, CA)[20].

Row | Structure (SMILES) | IC50 [µM]
16 | O=C(CC1SC(=S)N(Cc2ccccc2)C1=O)NCc1ccccc1 (centres unmarked) [Compound 6a, N-benzyl-2-(3-benzyl-4-oxo-2-thioxothiazolidin-5-yl)acetamide] | 2.22 ± 0.36
17 | Cc1ccc(CNC(=O)CC2SC(=S)N(Cc3ccccc3)C2=O)cc1 (centres unmarked) [Compound 6b, 2-(3-benzyl-4-oxo-2-thioxothiazolidin-5-yl)-N-(4-methylbenzyl)acetamide] | 4.02 ± 1.12
18 | CC(C)CN1C(=O)C(CC(=O)NCc2ccccc2)SC1=S (centres unmarked) [Compound 6l, N-benzyl-2-(3-isobutyl-4-oxo-2-thioxothiazolidin-5-yl)acetamide] | 4.38 ± 0.61
19 | CCCCN1C(=O)C(CC(=O)NCC(C)C)SC1=S (centres unmarked) [Compound 6k, 2-(3-butyl-4-oxo-2-thioxothiazolidin-5-yl)-N-isobutylacetamide] | 1.91 ± 0.57
20 | O=C(CC1SC(=S)N(Cc2ccccc2)C1=O)NCc1ccc(F)cc1 (centres unmarked) [Compound 6c, 2-(3-benzyl-4-oxo-2-thioxothiazolidin-5-yl)-N-(4-fluorobenzyl)acetamide] | 2.15 ± 0.18
21 | CCCCN1C(=O)C(CC(=O)NCc2ccc(C)cc2)SC1=S (centres unmarked) [Compound 6j, 2-(3-butyl-4-oxo-2-thioxothiazolidin-5-yl)-N-(4-methylbenzyl)acetamide] | 5.66 ± 0.79
22 | Cc1ccc(CNC(=O)CC2SC(=S)N(CC(C)C)C2=O)cc1 (centres unmarked) [Compound 6m, 2-(3-isobutyl-4-oxo-2-thioxothiazolidin-5-yl)-N-(4-methylbenzyl)acetamide] | 3.09 ± 1.08

Same assay, conditions: mean ± SEM, at least three experiments; listed as hydroxyurea; read-out: IC50 (μM), urease inhibitory activity

Row | Structure (SMILES) | IC50 [µM]
23 | NC(=O)NO [Hydroxyurea, reference compound] | 100

Same assay, conditions: mean ± SEM, at least three experiments; read-out: IC50 (μM), urease inhibitory activity

Row | Structure (SMILES) | IC50 [µM]
24 | NC(=O)NO [Hydroxyurea, reference compound] | 100 ± 2.5
25 | NC(N)=S [Thiourea, reference compound] | 23.6 ± 0.84

Test system: S. aureus ATCC 25923
Test: Antimicrobial activity, broth microdilution (CLSI)
Type: cell-based
Details: Staphylococcus aureus, ATCC25923
Experimental: (§1) Then, 100 μL of each dilution was transferred into the well of a microtiter plate and inoculated with 100 μL of cell suspension with a final density of 1–5 × 10^3 CFU/ml for yeasts and 1–1.5 × 10^6 cells/ml for bacteria. Plates were incubated at proper temperature overnight, and the minimum inhibitory concentration (MIC) of compounds was determined as the lowest concentration that prevented visible growth of tested microorganisms compared with the growth in the control wells (wells without tested compounds). […] All experiments were performed in duplicate[30],[31].

Row | Structure (SMILES) | MIC [µg/mL]
26 | O=C(CC1SC(=S)N(Cc2ccccc2)C1=O)NCc1ccccc1 (centres unmarked) [Compound 6a, N-benzyl-2-(3-benzyl-4-oxo-2-thioxothiazolidin-5-yl)acetamide] | > 512
27 | Cc1ccc(CNC(=O)CC2SC(=S)N(Cc3ccccc3)C2=O)cc1 (centres unmarked) [Compound 6b, 2-(3-benzyl-4-oxo-2-thioxothiazolidin-5-yl)-N-(4-methylbenzyl)acetamide] | > 512
28 | CC(C)CN1C(=O)C(CC(=O)NCc2ccccc2)SC1=S (centres unmarked) [Compound 6l, N-benzyl-2-(3-isobutyl-4-oxo-2-thioxothiazolidin-5-yl)acetamide] | > 512
29 | CCCCN1C(=O)C(CC(=O)NCC(C)C)SC1=S (centres unmarked) [Compound 6k, 2-(3-butyl-4-oxo-2-thioxothiazolidin-5-yl)-N-isobutylacetamide] | > 512
30 | O=C(CC1SC(=S)N(Cc2ccccc2)C1=O)NCc1ccc(F)cc1 (centres unmarked) [Compound 6c, 2-(3-benzyl-4-oxo-2-thioxothiazolidin-5-yl)-N-(4-fluorobenzyl)acetamide] | > 512
31 | Cc1ccc(CNC(=O)CC2SC(=S)N(CC(C)C)C2=O)cc1 (centres unmarked) [Compound 6m, 2-(3-isobutyl-4-oxo-2-thioxothiazolidin-5-yl)-N-(4-methylbenzyl)acetamide] | > 512

Test system: E. coli ATCC 25922
Test: Antimicrobial activity, broth microdilution (CLSI)
Type: cell-based
Details: Escherichia coli, ATCC25922, read-out: MIC
Experimental: as §1

Row | Structure (SMILES) | MIC [µg/mL]
32 | O=C(CC1SC(=S)N(Cc2ccccc2)C1=O)NCc1ccccc1 (centres unmarked) [Compound 6a, N-benzyl-2-(3-benzyl-4-oxo-2-thioxothiazolidin-5-yl)acetamide] | > 512
33 | Cc1ccc(CNC(=O)CC2SC(=S)N(Cc3ccccc3)C2=O)cc1 (centres unmarked) [Compound 6b, 2-(3-benzyl-4-oxo-2-thioxothiazolidin-5-yl)-N-(4-methylbenzyl)acetamide] | > 512
34 | CC(C)CN1C(=O)C(CC(=O)NCc2ccccc2)SC1=S (centres unmarked) [Compound 6l, N-benzyl-2-(3-isobutyl-4-oxo-2-thioxothiazolidin-5-yl)acetamide] | > 512
35 | CCCCN1C(=O)C(CC(=O)NCC(C)C)SC1=S (centres unmarked) [Compound 6k, 2-(3-butyl-4-oxo-2-thioxothiazolidin-5-yl)-N-isobutylacetamide] | > 512
36 | O=C(CC1SC(=S)N(Cc2ccccc2)C1=O)NCc1ccc(F)cc1 (centres unmarked) [Compound 6c, 2-(3-benzyl-4-oxo-2-thioxothiazolidin-5-yl)-N-(4-fluorobenzyl)acetamide] | > 512
37 | Cc1ccc(CNC(=O)CC2SC(=S)N(CC(C)C)C2=O)cc1 (centres unmarked) [Compound 6m, 2-(3-isobutyl-4-oxo-2-thioxothiazolidin-5-yl)-N-(4-methylbenzyl)acetamide] | > 512

Test system: clinical isolate of P. vulgaris
Test: Antimicrobial activity, broth microdilution (CLSI)
Type: cell-based
Details: Proteus vulgaris
Experimental: as §1

Row | Structure (SMILES) | MIC [µg/mL]
38 | O=C(CC1SC(=S)N(Cc2ccccc2)C1=O)NCc1ccccc1 (centres unmarked) [Compound 6a, N-benzyl-2-(3-benzyl-4-oxo-2-thioxothiazolidin-5-yl)acetamide] | > 512
39 | Cc1ccc(CNC(=O)CC2SC(=S)N(Cc3ccccc3)C2=O)cc1 (centres unmarked) [Compound 6b, 2-(3-benzyl-4-oxo-2-thioxothiazolidin-5-yl)-N-(4-methylbenzyl)acetamide] | > 512
40 | CC(C)CN1C(=O)C(CC(=O)NCc2ccccc2)SC1=S (centres unmarked) [Compound 6l, N-benzyl-2-(3-isobutyl-4-oxo-2-thioxothiazolidin-5-yl)acetamide] | > 512
41 | CCCCN1C(=O)C(CC(=O)NCC(C)C)SC1=S (centres unmarked) [Compound 6k, 2-(3-butyl-4-oxo-2-thioxothiazolidin-5-yl)-N-isobutylacetamide] | > 512
42 | O=C(CC1SC(=S)N(Cc2ccccc2)C1=O)NCc1ccc(F)cc1 (centres unmarked) [Compound 6c, 2-(3-benzyl-4-oxo-2-thioxothiazolidin-5-yl)-N-(4-fluorobenzyl)acetamide] | > 512
43 | Cc1ccc(CNC(=O)CC2SC(=S)N(CC(C)C)C2=O)cc1 (centres unmarked) [Compound 6m, 2-(3-isobutyl-4-oxo-2-thioxothiazolidin-5-yl)-N-(4-methylbenzyl)acetamide] | > 512

Test system: C. albicans ATCC 10261
Test: Antimicrobial activity, broth microdilution (CLSI)
Type: cell-based
Details: Candida albicans, ATCC10261
Experimental: The antimicrobial activity of designed compounds was investigated using broth microdilution.
Briefly, twofold serial dilutions of the compounds were prepared in Mueller–Hinton Broth (MHB, HiMedia) for bacterial strains and RPMI-1640 (Sigma-Aldrich) for yeast strain (Ranging 1–512 µg/ml). Then, 100 μL of each dilution was transferred into the well of a microtiter plate and inoculated with 100 μL of cell suspension with a final density of 1–5 × 10^3 CFU/ml for yeasts and 1–1.5 × 10^6 cells/ml for bacteria. Plates were incubated at proper temperature overnight, and the minimum inhibitory concentration (MIC) of compounds was determined as the lowest concentration that prevented visible growth of tested microorganisms compared with the growth in the control wells (wells without tested compounds). Moreover, the minimum bactericidal/fungicidal concentration (MBC/MFC) of compounds was determined by transferring the 10 µl of clear wells into the agar media. Standard antibacterial and antifungal agents (Ciprofloxacin and Fluconazole) were evaluated. All experiments were performed in duplicate[30],[31].

Row | Structure (SMILES) | MIC [µg/mL]
44 | O=C(CC1SC(=S)N(Cc2ccccc2)C1=O)NCc1ccccc1 (centres unmarked) [Compound 6a, N-benzyl-2-(3-benzyl-4-oxo-2-thioxothiazolidin-5-yl)acetamide] | > 512
45 | Cc1ccc(CNC(=O)CC2SC(=S)N(Cc3ccccc3)C2=O)cc1 (centres unmarked) [Compound 6b, 2-(3-benzyl-4-oxo-2-thioxothiazolidin-5-yl)-N-(4-methylbenzyl)acetamide] | > 512
46 | CC(C)CN1C(=O)C(CC(=O)NCc2ccccc2)SC1=S (centres unmarked) [Compound 6l, N-benzyl-2-(3-isobutyl-4-oxo-2-thioxothiazolidin-5-yl)acetamide] | > 512
47 | CCCCN1C(=O)C(CC(=O)NCC(C)C)SC1=S (centres unmarked) [Compound 6k, 2-(3-butyl-4-oxo-2-thioxothiazolidin-5-yl)-N-isobutylacetamide] | > 512
48 | OC(Cn1cncn1)(Cn1cncn1)c1ccc(F)cc1F [Fluconazole, reference compound] | 4 (≈ 13.1 µM)
49 | O=C(CC1SC(=S)N(Cc2ccccc2)C1=O)NCc1ccc(F)cc1 (centres unmarked) [Compound 6c, 2-(3-benzyl-4-oxo-2-thioxothiazolidin-5-yl)-N-(4-fluorobenzyl)acetamide] | > 512
50 | Cc1ccc(CNC(=O)CC2SC(=S)N(CC(C)C)C2=O)cc1 (centres unmarked) [Compound 6m, 2-(3-isobutyl-4-oxo-2-thioxothiazolidin-5-yl)-N-(4-methylbenzyl)acetamide] | > 512
